Source: patent US10150774B2, “Compounds and methods” (INTRA-CELLULAR THERAPIES, INC., priority 2014, dated 2018)

Tested on: PDE1
Assay: Measurement of PDEIB inhibition in vitro using IMAP phosphodiesterase assay kit
Format: biochemical, bovine or human
Source text: Example 10: Measurement of PDEIB Inhibition in Vitro Using IMAP Phosphodiesterase Assay Kit
Phosphodiesterase I B (PDEIB) is a calcium/calmodulin dependent phosphodiesterase enzyme that converts cyclic guanosine monophosphate (cGMP) to 5′-guanosine monophosphate (5′-GMP). PDEIB can also convert a modified cGMP substrate, such as the fluorescent molecule cGMP-fluorescein, to the corresponding GMP-fluorescein. The generation of GMP-fluorescein from cGMP-fluorescein can be quantitated, using, for example, the IMAP (Molecular Devices, Sunnyvale, Calif.) immobilized-metal affinity particle reagent.
Briefly, the IMAP reagent binds with high affinity to the free 5′-phosphate that is found in GMP-fluorescein and not in cGMP-fluorescein. The resulting GMP-fluorescein-IMAP complex is large relative to cGMP-5 fluorescein. Small fluorophores that are bound up in a large, slowly tumbling, complex can be distinguished from unbound fluorophores, because the photons emitted as they fluoresce retain the same polarity as the photons used to excite the fluorescence.
In the phosphodiesterase assay, cGMP-fluorescein, which cannot be bound to IMAP, and therefore retains little fluorescence polarization, is converted to GMPfluorescein, which, when bound to IMAP, yields a large increase in fluorescence polarization (mp). Inhibition of phosphodiesterase, therefore, is detected as a decrease in mp.
Materials: All chemicals are available from Sigma-Aldrich (St. Louis, Mo.) except for IMAP reagents (reaction buffer, binding buffer, FL-GMP and IMAP beads), which are available from Molecular Devices (Sunnyvale, Calif.).
Assay: The following phosphodiesterase enzymes may be used: 3′,5′-cyclic-nucleotide specific bovine brain phosphodiesterase (Sigma, St. Louis, Mo.) (predominantly PDEIB) and recombinant full length human PDE1 A and PDE1B (r-hPDE1 A and r-hPDE1B respectively) which may be produced e.g., in HEK or SF9 cells by one skilled in the art. The PDE1 enzyme is reconstituted with 50% glycerol to 2.5 U/mL. One unit of enzyme will hydrolyze 1.0 μmol of 3′,5′-cAMP to 5′-AMP per min at pH 7.5 at 30° C. […]
The FL-GMP conversion reaction is initiated by combining 4 parts enzyme and inhibitor mix with 1 part substrate solution ([…]) in a 384-well microtiter plate. […] The plate is incubated at room temperature for 1 hour to allow IMAP binding to proceed to completion, and then placed in an Envision multimode microplate reader (PerkinElmer, Shelton, Conn.) to measure the fluorescence polarization (mp).
A decrease in GMP concentration, measured as decreased mp, is indicative of inhibition of PDE activity.

selectivity for PDE1	SMILES
good selectivity	CN1C(=O)c2c(nn(Cc3ccc(-c4ccccn4)cc3)c2Nc2ccc(F)cc2)N2CC(C)(C)N=C12 [Example 1, 7,8-Dihydro-2-(4-(pyridine-2-yl)benzyl)-3-(4-fluorophenylamino)-5,7,7-trimethyl-[2H]-imidazo-[1,2-a]pyrazolo[4,3-e]pyrimidin-4(5H)-one]
good selectivity	CCc1c2c(nn1Cc1ccc(-c3ccc(F)cn3)cc1)N1CC(C)(C)N=C1N(C)C2=O [Example 5, 7,8-Dihydro-2-(4-(5-fluoropyridin2-yl)benzyl)-3-ethyl-5,7,7-trimethyl-[2H]-imidazo-[1,2-a]pyrazolo[4,3-e]pyrimidin-4(5H)-one]
good selectivity	CCCc1c2c(nn1Cc1ccc(-c3ccc(F)cn3)cc1)N1CC(C)(C)N=C1N(C)C2=O [Example 7, 7,8-Dihydro-2-(4-(5-fluoropyridin2-yl)benzyl)-3-propyl-5,7,7-trimethyl-[2H]-imidazo-[1,2-a]pyrazolo[4,3-e]pyrimidin-4(5H)-one]
good selectivity	CN1C(=O)c2c(nn(Cc3ccc(Cl)cc3)c2Nc2ccc(F)cc2)N2CC(C)(C)N=C12 [Example 9, 7,8-Dihydro-2-(4-chlorobenzyl)-3-(4-fluorophenylamino)-5,7,7-trimethyl-[2H]-imidazo-[1,2-a]pyrazolo[4,3-e]pyrimidin-4(5H)-one]
